Test results from patent US20050197350A1, “Novel quinoline, tetrahydroquinazoline, and pyrimidine derivatives and methods of treatment related to the use thereof” (TAISHO PHARMACEUTICAL CO., LTD., priority 2003, published 2005).

What follows are compounds tested on MCH receptors (assay: MCH receptor activity class (method not given)). Conditions: class by percent of control at 10^-7 M or IC50.

Structure (SMILES)	class
COc1ccc(F)c(CNC[C@H]2CC[C@@H](Nc3cc(N(C)C)c4ccccc4n3)CC2)c1 [compound 1164]	3 (Class 3 The value of percent of control at 10^−7 M was more than 60% or the value of IC50 was more than 200 nM.)
CN(C)c1cc(N[C@H]2CC[C@@H](CNCc3ccccc3SC(F)(F)F)CC2)nc2ccccc12 [compound 1165]	3 (Class 3 The value of percent of control at 10^−7 M was more than 60% or the value of IC50 was more than 200 nM.)
CCOc1ccc(Br)cc1CNC[C@H]1CC[C@@H](Nc2cc(N(C)C)c3ccccc3n2)CC1 [compound 1166]	3 (Class 3 The value of percent of control at 10^−7 M was more than 60% or the value of IC50 was more than 200 nM.)
COc1ccc(CNC[C@H]2CC[C@@H](Nc3cc(N(C)C)c4ccccc4n3)CC2)c(OC)c1C [compound 1167]	3 (Class 3 The value of percent of control at 10^−7 M was more than 60% or the value of IC50 was more than 200 nM.)
CN(C)c1cc(N[C@H]2CC[C@@H](CNCc3ccccc3OC(F)(F)F)CC2)nc2ccccc12 [compound 1168]	3 (Class 3 The value of percent of control at 10^−7 M was more than 60% or the value of IC50 was more than 200 nM.)
CCOc1ccc(OCC)c(CNC[C@H]2CC[C@@H](Nc3cc(N(C)C)c4ccccc4n3)CC2)c1 [compound 1169]	2 (Class 2: The value of percent of control at 10^−7 M was from 40% to 60% or the value of IC′50 was from 50 nM to 200 nM.)
CCOc1ccc(CNC[C@H]2CC[C@@H](Nc3cc(N(C)C)c4ccccc4n3)CC2)c(OCC)c1 [compound 1170]	2 (Class 2: The value of percent of control at 10^−7 M was from 40% to 60% or the value of IC′50 was from 50 nM to 200 nM.)
COc1c(Br)cc(Br)cc1CNC[C@H]1CC[C@@H](Nc2cc(N(C)C)c3ccccc3n2)CC1 [compound 1171]	2 (Class 2: The value of percent of control at 10^−7 M was from 40% to 60% or the value of IC′50 was from 50 nM to 200 nM.)
CN(C)c1cc(N[C@H]2CC[C@@H](CNCc3ccccc3OC(F)F)CC2)nc2ccccc12 [compound 1172]	3 (Class 3 The value of percent of control at 10^−7 M was more than 60% or the value of IC50 was more than 200 nM.)
COc1ccc(F)cc1CNC[C@H]1CC[C@@H](Nc2cc(N(C)C)c3ccccc3n2)CC1 [compound 1173]	3 (Class 3 The value of percent of control at 10^−7 M was more than 60% or the value of IC50 was more than 200 nM.)
CCOc1cc(OCC)c(OCC)cc1CNC[C@H]1CC[C@@H](Nc2cc(N(C)C)c3ccccc3n2)CC1 [compound 1174]	2 (Class 2: The value of percent of control at 10^−7 M was from 40% to 60% or the value of IC′50 was from 50 nM to 200 nM.)
COc1cc(OC)c(OC)cc1CNC[C@H]1CC[C@@H](Nc2cc(N(C)C)c3ccccc3n2)CC1 [compound 1175]	2 (Class 2: The value of percent of control at 10^−7 M was from 40% to 60% or the value of IC′50 was from 50 nM to 200 nM.)
COc1cccc(CNC[C@H]2CC[C@@H](Nc3cc(N(C)C)c4ccccc4n3)CC2)c1OC [compound 1176]	3 (Class 3 The value of percent of control at 10^−7 M was more than 60% or the value of IC50 was more than 200 nM.)
C=CCOc1ccccc1CNC[C@H]1CC[C@@H](Nc2cc(N(C)C)c3ccccc3n2)CC1 [compound 1177]	2 (Class 2: The value of percent of control at 10^−7 M was from 40% to 60% or the value of IC′50 was from 50 nM to 200 nM.)
CN(C)c1cc(N[C@H]2CC[C@@H](CNCc3csc4ccccc34)CC2)nc2ccccc12 [compound 1178]	3 (Class 3 The value of percent of control at 10^−7 M was more than 60% or the value of IC50 was more than 200 nM.)
CN(C)c1cc(N[C@H]2CC[C@@H](CNCc3cn(C)c4ccccc34)CC2)nc2ccccc12 [compound 1179]	3 (Class 3 The value of percent of control at 10^−7 M was more than 60% or the value of IC50 was more than 200 nM.)

Structure (SMILES)	class
Cc1ccc(CNC[C@H]2CC[C@@H](Nc3cc(N(C)C)c4ccccc4n3)CC2)s1 [compound 1180]	3 (Class 3 The value of percent of control at 10^−7 M was more than 60% or the value of IC50 was more than 200 nM.)
Cc1cc(C)c(CNC[C@H]2CC[C@@H](Nc3cc(N(C)C)c4ccccc4n3)CC2)c(C)c1 [compound 1181]	3 (Class 3 The value of percent of control at 10^−7 M was more than 60% or the value of IC50 was more than 200 nM.)
CN(C)c1cc(N[C@H]2CC[C@@H](CNCc3ccc4c(c3)OCO4)CC2)nc2ccccc12 [compound 1182]	3 (Class 3 The value of percent of control at 10^−7 M was more than 60% or the value of IC50 was more than 200 nM.)
CN(C)c1cc(N[C@H]2CC[C@@H](CNCc3ccsc3)CC2)nc2ccccc12 [compound 1183]	3 (Class 3 The value of percent of control at 10^−7 M was more than 60% or the value of IC50 was more than 200 nM.)
Cc1cccc(CNC[C@H]2CC[C@@H](Nc3cc(N(C)C)c4ccccc4n3)CC2)c1 [compound 1184]	3 (Class 3 The value of percent of control at 10^−7 M was more than 60% or the value of IC50 was more than 200 nM.)
Cc1ccccc1CNC[C@H]1CC[C@@H](Nc2cc(N(C)C)c3ccccc3n2)CC1 [compound 1185]	3 (Class 3 The value of percent of control at 10^−7 M was more than 60% or the value of IC50 was more than 200 nM.)
Cc1ccc(CNC[C@H]2CC[C@@H](Nc3cc(N(C)C)c4ccccc4n3)CC2)cc1 [compound 1186]	3 (Class 3 The value of percent of control at 10^−7 M was more than 60% or the value of IC50 was more than 200 nM.)
CN(C)c1cc(N[C@H]2CC[C@@H](CNCc3cc(Cl)cc(Cl)c3)CC2)nc2ccccc12 [compound 1187]	3 (Class 3 The value of percent of control at 10^−7 M was more than 60% or the value of IC50 was more than 200 nM.)
COc1cc(CNC[C@H]2CC[C@@H](Nc3cc(N(C)C)c4ccccc4n3)CC2)cc2c1OCO2 [compound 1188]	2 (Class 2: The value of percent of control at 10^−7 M was from 40% to 60% or the value of IC′50 was from 50 nM to 200 nM.)
COc1cc(CNC[C@H]2CC[C@@H](Nc3cc(N(C)C)c4ccccc4n3)CC2)cc(Br)c1OC [compound 1189]	3 (Class 3 The value of percent of control at 10^−7 M was more than 60% or the value of IC50 was more than 200 nM.)
COc1ccc(CNC[C@H]2CC[C@@H](Nc3cc(N(C)C)c4ccccc4n3)CC2)cc1C [compound 1190]	3 (Class 3 The value of percent of control at 10^−7 M was more than 60% or the value of IC50 was more than 200 nM.)
COc1cc(Br)c(CNC[C@H]2CC[C@@H](Nc3cc(N(C)C)c4ccccc4n3)CC2)cc1OC [compound 1191]	3 (Class 3 The value of percent of control at 10^−7 M was more than 60% or the value of IC50 was more than 200 nM.)
Cc1oc(-c2ccccc2)cc1CNC[C@H]1CC[C@@H](Nc2cc(N(C)C)c3ccccc3n2)CC1 [compound 1192]	3 (Class 3 The value of percent of control at 10^−7 M was more than 60% or the value of IC50 was more than 200 nM.)
COc1ccc(CNC[C@H]2CC[C@@H](Nc3cc(N(C)C)c4ccccc4n3)CC2)cc1OC [compound 1193]	3 (Class 3 The value of percent of control at 10^−7 M was more than 60% or the value of IC50 was more than 200 nM.)
Cc1cc(CNC[C@H]2CC[C@@H](Nc3cc(N(C)C)c4ccccc4n3)CC2)ccc1O [compound 1194]	3 (Class 3 The value of percent of control at 10^−7 M was more than 60% or the value of IC50 was more than 200 nM.)
